Data reported in patent US20230241071A1, “COMBINATION TREATMENT OF LIVER DISORDERS” (Terns Pharmaceuticals, Inc., priority 2021, published 2023).
“Also recorded” adds a separate entry of the source.

Key:
SSAO = biological target: T1, SSAO (Homo sapiens, UniProt Q16853); assay: Plasma SSAO activity and methylamine, multiple doses of Compound 1; format: in vivo
T1 construct: from tissue; host or cells: human plasma from dosed participants
T1 sequence (Q16853 29-763 limits assumed): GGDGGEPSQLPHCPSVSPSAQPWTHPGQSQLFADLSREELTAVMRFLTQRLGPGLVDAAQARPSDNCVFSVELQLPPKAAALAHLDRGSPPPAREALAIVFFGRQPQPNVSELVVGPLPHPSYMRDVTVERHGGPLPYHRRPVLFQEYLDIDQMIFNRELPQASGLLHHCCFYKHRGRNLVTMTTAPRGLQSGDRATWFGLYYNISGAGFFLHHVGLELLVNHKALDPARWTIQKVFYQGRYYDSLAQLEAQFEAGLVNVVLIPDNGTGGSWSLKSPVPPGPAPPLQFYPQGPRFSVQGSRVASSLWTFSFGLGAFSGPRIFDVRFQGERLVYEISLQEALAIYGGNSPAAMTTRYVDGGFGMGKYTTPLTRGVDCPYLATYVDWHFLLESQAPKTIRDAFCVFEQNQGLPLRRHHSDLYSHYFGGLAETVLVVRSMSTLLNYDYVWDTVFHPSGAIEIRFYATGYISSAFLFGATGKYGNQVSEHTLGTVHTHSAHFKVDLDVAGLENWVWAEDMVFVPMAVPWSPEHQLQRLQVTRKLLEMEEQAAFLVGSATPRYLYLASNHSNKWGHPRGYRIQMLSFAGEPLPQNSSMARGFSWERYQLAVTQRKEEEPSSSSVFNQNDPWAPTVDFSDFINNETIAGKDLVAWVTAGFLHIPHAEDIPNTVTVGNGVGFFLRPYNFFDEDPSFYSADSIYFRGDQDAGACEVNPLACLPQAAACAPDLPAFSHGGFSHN
Procedure: A multiple-ascending dose clinical trial of Compound 1 was performed.

[1] = Single-ascending dose trial of Compound 1 in healthy participants: safety and plasma PK
Procedure: SSAO inhibition was determined by measuring relative reductions in plasma H2O2 generation after addition of an exogenous substrate (benzylamine). […] Safety was assessed for 7 (±3) days after dosing.
Plasma PK parameters were determined by non-compartmental analysis. […] Percent change in total amine oxidase activity was determined relative to the corresponding pre-dose (baseline) samples.

[2] = Pharmacokinetic evaluation in SD rats; format: in vivo, rat; settings: 2.0 mg/kg intragastric
Procedure: Drug Preparation: a certain amount of the drug was taken and added into a 2% Klucel LF+0.1% Tween 80 aqueous solution, to prepare a clear solution or a uniform suspension.
Dosage: SD rats were fasted overnight and given the drug by intragastric infusion at an administrated dose of 2 mg/kg and an administrated volume of 10 mL/kg each.
Operation: rats were dosed by intragastric infusion with the compounds. […] The heparinized sample tubes were then stored at −20° C., and the rats were allowed to eat food 2 h after the dosage.
Determination of contents of the compounds to be tested in the plasma of rats after intragastric infusion of the drugs at different concentrations: the plasma samples were thawed at room temperature, 50 μL each was taken and added into 130 μL of an internal standard working solution (1000 ng/mL, acetonitrile, tolbutamide), and the mixture was whirled for about 1 min and then centrifugated at 4° C. and 13000 rpm for 10 min. 50 μL of the supernatant was taken and mixed with 100 μL of 50% acetonitrile water, and then introduced for LC/MS/MS analysis.

[3] = test system: SHBG, Apo B and serum lipids; assay: Single-ascending dose trial of Compound 2: serum PD markers; format: in vivo, human; parameters: LDL-c change from baseline / HDL-c change from baseline / TC change from baseline / Apo B change from baseline: unit not given here
Procedure: Urine samples for Compound 2 concentration and PK sampling were collected pre-dose and at the following timepoints: 0-6 hours, 6-12 hours, 12-24 hours, and 24-48 hours. PK parameters were estimated via noncompartmental methods using Phoenix® WinNonlin® (Certara, LP, Princeton, N.J.). Concentrations of serum pharmacodynamic (PD) biomarkers apolipoprotein B (Apo B) and sex hormone binding globulin (SHBG) were measured using an immunoassay and serum lipids were determined using spectrophotometry.
PD sampling was performed pre-dose, and 48 hours and 72 hours post-dose. Percent change from baseline for PD markers were calculated using an ANCOVA model with percent change from baseline as dependent variable, treatment group as fixed effect, and baseline as covariate. Analyses used observed data only without imputation for missing data.

[4] = all single-dose cohorts, 1-10 mg or placebo (n = 32)
[5] = single dose 1 mg or placebo (n = 8)
[6] = single dose 3 mg or placebo (n = 8)
[7] = single dose 6 mg or placebo (n = 8)
[8] = single dose 10 mg or placebo (n = 8)
[9] = Day 3 after single dose 3 mg (n = 6)
[10] = Day 3 after single dose 10 mg (n = 6)
[11] = Day 3 after single dose 30 mg (n = 6)
[12] = Day 3 after single dose 60 mg (n = 6)

## COC1CCN(c2ncc(OC/C(=C/F)CN)cn2)CC1 [Compound 1, (E)-3-fluoro-2-(((2-(4-methoxypiperidin-1-yl)pyrimidin-5-yl)oxy)methyl)prop-2-en-1-amine]
SSAO; 10 mg, healthy participants (Example 2)
  suppression of plasma VAP-1/SSAO-specific amine oxidase activity: > 90%
SSAO; Day 1, all dose cohorts
  inhibition of plasma SSAO activity: Near complete inhibition
SSAO; first daily dose 1, 4, 10 mg
  plasma methylamine levels: increased in a dose proportional manner
SSAO; multiple QD doses
  duration of inhibition of plasma SSAO amine oxidase activity after cessation of dosing: up to 2 weeks
[1]; [4]
  Subject incidence of TEAEs considered possibly treatment-related: 1 (3.1)
  Subject incidence of any TEAE: 5 (15.6)
  TEAE frequency: constipation: 1 (3.1)
  TEAE frequency: contact dermatitis: 2 (6.3)
  TEAE frequency: dysgeusia: 1 (3.1)
  TEAE frequency: headache: 1 (3.1)
  TEAE frequency: sore throat: 1 (3.1)
  TEAE frequency: upper respiratory tract infection: 1 (3.1)
[1]; [5]
  Subject incidence of TEAEs considered possibly treatment-related: 0
  Subject incidence of any TEAE: 0
  TEAE frequency: constipation: 0
  TEAE frequency: contact dermatitis: 0
  TEAE frequency: dysgeusia: 0
  TEAE frequency: headache: 0
  TEAE frequency: sore throat: 0
  TEAE frequency: upper respiratory tract infection: 0
[1]; [6]
  Subject incidence of TEAEs considered possibly treatment-related: 0
  Subject incidence of any TEAE: 0
  TEAE frequency: constipation: 0
  TEAE frequency: contact dermatitis: 0
  TEAE frequency: dysgeusia: 0
  TEAE frequency: headache: 0
  TEAE frequency: sore throat: 0
  TEAE frequency: upper respiratory tract infection: 0
[1]; [7]
  Subject incidence of TEAEs considered possibly treatment-related: 0
  Subject incidence of any TEAE: 2
  TEAE frequency: constipation: 0
  TEAE frequency: contact dermatitis: 2
  TEAE frequency: dysgeusia: 0
  TEAE frequency: headache: 0
  TEAE frequency: sore throat: 1
  TEAE frequency: upper respiratory tract infection: 0
[1]; [8]
  Subject incidence of TEAEs considered possibly treatment-related: 1 (12.5)
  Subject incidence of any TEAE: 3 (37.5)
  TEAE frequency: constipation: 1 (12.5)
  TEAE frequency: contact dermatitis: 0
  TEAE frequency: dysgeusia: 1 (12.5)
  TEAE frequency: headache: 1 (12.5)
  TEAE frequency: sore throat: 0
  TEAE frequency: upper respiratory tract infection: 1 (12.5)
[1]; single dose, between 1 and 10 mg
  plasma PK exposure, dose proportionality: greater than dose proportional
[1]; single oral dose 1 mg to 10 mg
  safety and tolerability: No clinically relevant adverse events or laboratory abnormalities; also recorded: safe and well tolerated

## N#Cc1nn(-c2cc(Cl)c(Oc3n[nH]c(=O)c4ccccc34)c(Cl)c2)c(=O)[nH]c1=O [Compound 2, 2-(3,5-dichloro-4-((4-oxo-3,4-dihydrophthalazin-1-yl)oxy)phenyl)-3,5-dioxo-2,3,4,5-tetrahydro-1,2,4-triazine-6-carbonitrile]
[2]
  Curve area: 24790 ± 3704 ng·h/mL
  Peak blood drug concentration: 2007 ± 106 ng/mL
  Time to peak: 4.67 ± 1.15 h
[2]; male, rat, plasma, po
  half-life: 4.56 ± 0.42 h
[3]; Day 3 after single dose
  LDL-c, total cholesterol, and Apo-B: Dose-dependent decreases
[3]; [9]
  Apo B LSM % change: −2.7%
  Apo B change from baseline: −1.5
  HDL-c LSM % change: 2.4%
  HDL-c change from baseline: 0.87
  LDL-c LSM % change: −3.1%
  LDL-c change from baseline: −3.98
  SHBG LSM % change: 6.3%
  SHBG change from baseline: 0.20 nmol/L
  TC LSM % change: −0.88%
  TC change from baseline: −1.85
[3]; [10]
  Apo B LSM % change: −6.0%
  Apo B change from baseline: −5.6
  HDL-c LSM % change: −1.0%
  HDL-c change from baseline: −1.1
  LDL-c LSM % change: 0.70%
  LDL-c change from baseline: 0.68
  SHBG LSM % change: 31.3%
  SHBG change from baseline: 15.8 nmol/L
  TC LSM % change: −0.84%
  TC change from baseline: −1.93
[3]; [11]
  Apo B LSM % change: −11.0%
  Apo B change from baseline: −11.5
  HDL-c LSM % change: −12.1%
  HDL-c change from baseline: −6.1
  LDL-c LSM % change: −12.5%
  LDL-c change from baseline: −15.7
  SHBG LSM % change: 16.5%
  SHBG change from baseline: 6.0 nmol/L
  TC LSM % change: −11.84%
  TC change from baseline: −24.14
[3]; [12]
  Apo B LSM % change: −15.75%
  Apo B change from baseline: −13.9
  SHBG LSM % change: 13.8%
  SHBG change from baseline: 5.05 nmol/L
[3]; after a single dose
  triglyceride levels: No significant changes
[3]; single doses of ≥10 mg
  SHBG relative to placebo: Significant increases
